According to patent US10098895B2, “Treatment of symptoms related to neurodegenerative disorders through pharmacological dermal activation of cranial nerves” (GLIA, LLC, priority 2016, dated 2018):
Entries after “also recorded” stand apart in the source; their conditions may differ.

Columns and labels:
[1] = test system: Parkinson's disease symptoms; assay: Example 1: Parkinson's disease patient, dermal application to forehead and ear conchae
Method: A person was diagnosed with the early stages of Parkinson's disease in December of 2014. Their symptoms included tremors in the hands, impaired short term memory, slow and uncontrolled rigid movements while walking and eating, and declining ocular blink function. The patient also had dry eyes with hyper-tearing, burning, and itching.
The patient was also treated with progesterone 1% on the forehead initially once daily beginning in March 2015. […] The progesterone was applied as needed for about a year.
Instead of the prescribed regimen, the patient began dermal application of dronabinol 1.25 mg 2 times daily to three sites: (i) the forehead, (ii) the concha of the left ear, and (iii) the concha of the right ear. Each dose of 1.25 mg was divided equally between the three application sites. This treatment regimen began Friday Jun. 10, 2016 concurrent with the discontinuation of rasagiline.
In February 2017, the patient, who suffers from debilitating moderate spinal stenosis, started taking Azilect (rasagiline) and carbidopa-levodopa to improve their walking and flexibility. […] The patient decided that, together with the prescribed medications, they would switch from dronabinol to topical testosterone gel applied to the forehead and ear conchae to see if this would impact their longstanding low testosterone levels.
In March 2017, topical testosterone gel application was instituted as an adjunct to is the prescribed Azilect and carbidopa-levodopa.
The patient voluntarily stopped topical testosterone for 3 weeks in June 2017. […] At the end of 3 weeks, topical testosterone was re-instituted as an adjunct to the prescribed medications.

[2] = test system: herpes ophthalmicus and herpes keratitis; assay: Example 8: herpes ophthalmicus and herpes keratitis patient; assay type: in vivo, human; details: dronabinol 0.5 mg twice daily to both ears
From the text: A patient experienced an episode of herpes ophthalmicus and herpes keratitis in September 2003, resulting in thinning melt of the left cornea, loss of vision, inflammation, neuralgia, and a rash of blisters to the left forehead, upper nose, and temple with a subsequent full left-face palsy droop, which required multiple cosmetic surgical procedures to provide some symmetry to the face and partial closure to the eyelids of the left eye.
No corneal graft to the left eye could be attempted due to recurrent thinning of the full cornea and inflammation of the vasculature. The patient was treated with ophthalmic prednisolone, topical and systemic antivirals, topical antibiotics, bandage lens, punctal plugs, and over-the-counter artificial tears and gels. This treatment regimen was continued until January 2011 when the cornea thinned to probable melt-through, necessitating corneal patch surgery. Just prior to the surgery, the patient's vision was measured at 20/2000, or finger vision.
The patient started applying 1% progesterone to their forehead twice daily just before corneal patch surgery planned for January 2011. The dose of progesterone was approximately 1 mg per application.
In September 2014, corneal tissue had sufficiently epithelialized at the perimeter to attempt a corneal graft, which was successfully completed. Progesterone 1% was applied daily to the forehead post-surgery. Within 9 months vision was restored to best correct vision pinhole 20/50.
In February 2015, the patient's visual acuity decreased as a result of the rejection of cells at the lower part of the graft. Moderate central staining continued to persist in a band where eyelids could not close. Intraocular pressure (TOP) in the left eye rose to 22 mmHg. The patient was placed on a treatment regimen that included Prednisolone Forte 6× plus Restasis for rejection 2× daily and oral valacycovir, together with mechanically taping the eyelid closed at night.
In May 2016, the patient initiated a course of twice daily dronabinol treatment, 0.5 mg each dose, to both ears. Through July, stabilization was achieved, and all other medications were discontinued. […] Visual acuity improved to 20/40.

[3] = test system: herpes facial palsy; assay: Example 9: functional facial motor control in herpes facial palsy; assay type: in vivo, human
From the text: A person had unilateral facial unilateral palsy stemming from 2003 herpes ophthalmicus and herpes keratitis. The left eye lids were unable to close to cover the central cornea without a forceful blink; neither were the lids able to open with the upper lid sagging and without elasticity or muscle control. This static condition was the baseline since the end of 2003 to May 2016, or nearly 13 years.
The left side of the face drooped, the left corner of the mouth drooled, and a noticeable asymmetry presented at rest. The upper lip could only slightly reveal the lowest pat of the upper teeth on the right side. There was minimal functional motor control of facial expression including upper lip. left side brow, eye lids, cheeks to mouth and chin lacked elasticity and functional motor control, leaving face fixed, expressionless, and asymmetrical.
The facial skin sagged as did the eye lids. […] His upper lip was partially frozen on the left side, and drooling was persistent. Lip and mouth expression as in smile was severely restricted.
Beginning in mid-May 2016, the patient began treatment twice daily with dronabinol 2.5 mg in oil, one-third of which was applied equally to the concha of the left ear, to the conchae of the right ear, and to the forehead.

[4] = test system: essential tremor; assay: Example 7: essential tremor subject with contact lens discomfort; assay type: in vivo, human
Method: A person developed persistent right hand tremors of a kinetic (non-resting) type that has been continuous over the past 6 years. […] This condition had not worsened over time. […] Initially, their doctor thought that these symptoms were stress related and they have been taking 2.5 mg of escitalopram for over 6 years. […] The subject was not on hormone replacement therapy or any other medication.
Concomitantly, the subject suffered from uncomfortable eyes, with a sticky burning sensation and development of blurred vision after about 5-6 hours of contact lens wear. For the past 3 years, the subject was administered 1% progesterone gel (1 mg per day) by dermal application to the forehead once per night. The progesterone gel prolonged comfortable contact lens wear time with sustained visual acuity from 5-6 hours to greater than 15 hours. […] After 2 years of treatment, the benefits of progesterone dermal application persisted for at least 3 days without treatment. There was no effect of the progesterone on their tremor symptoms.
After allowing for washout of progesterone for 3 days, they began forehead application of 0.5-0.75 mg dronabinol once daily at night.
The dronabinol administration regimen was altered by dividing equally the once daily dose of 0.5-0.75 mg dronabinol between the conchae of the left ear, the conchae of the right ear, and the forehead. […] Comfortable contact lens wear, with ease of insertion and removal, and visual acuity extends for 15 hours or more after dronabinol application.
Contact lens comfort wear duration was greater than 15 hours.
In April 2017, the subject, while still being treated with 1% progesterone applied to the forehead, instituted a once-daily low dose topical testosterone applied to the forehead and ear conchae to determine if doing so would produce a beneficial impact on further tremor reduction and in particular essential tremor triggered by caffeine consumption. […] They stopped the treatment to assess whether the tremor would return to pre-testosterone treatment levels. As of August 2017, the subject is without noticeable tremor. The caffeine trigger for tremor onset, which had been recognized throughout all treatments, has not re-appeared since the completion of the 4-week testosterone treatment. The subject continues on low-dose progesterone 1% applied daily to the forehead as the only treatment.

[5] = dronabinol 1.25 mg 2 times daily, forehead and both conchae, two weeks, no other medications
[6] = dronabinol 2.5 mg in oil twice daily divided between both conchae and forehead, 3 months

Which results are given for CCCCCc1cc(O)c2c(c1)OC(C)(C)[C@@H]1CCC(C)=C[C@@H]21 [dronabinol, (6aR,10aR)-6a,7,8,10a-tetrahydro-6,6,9-trimethyl-3-pentyl-6H-dibenzo[b,d]-pyran-1-ol]?
stability of improvement ([1]; 3 months of dronabinol to conchae and forehead as sole Parkinson's medication): stable at the improved level; speech, thought and social interaction ([1]; dronabinol 1.25 mg 2 times daily divided between forehead and concha of both ears, within three days, washing out of rasagiline): more fluid speech, less searching for words, fewer thought gaps; bodily rigidity [1, 5]: significantly less bodily rigidity; depression [1, 5]: depression resolved in the absence of antidepressants; facial masking [1, 5]: decreased facial masking and more voluntary facial expressions; also recorded: decrease in facial masking; hand tremors [1, 5]: markedly reduced hand tremors; memory function [1, 5]: much improved memory function; motor skills and coordination [1, 5]: motor skills and coordination improved; postnasal drip, chest cough and asthmatic wheezing [1, 5]: persistent postnasal drip resolved, chest cough and asthmatic wheezing resolved; dry eyes ([1]; dronabinol 1.25 mg 2 times daily, forehead and both conchae, within three days): dry eyes resolved with no need for artificial tears; improvement of Parkinson's disease symptoms (motor, cognitive, emotional), reported by wife ([1]; dronabinol since Jun. 10, 2016 as sole medication, reported Jul. 27, 2016): 90%; cognitive function and other non-motor symptoms during tapering-off ([1]; tapering-off of dronabinol, already on Azilect and carbidopa-levodopa): rapidly deteriorated; adverse events ([1]; throughout low dose neural cranial treatment): no adverse events were noted; corneal staining ([2]; May through July 2016): improve somewhat, but still moderate; graft rejected cells ([2]; May through July 2016): the number of rejected cells became fewer; visual acuity ([2]; May through July 2016): 20/40; intraocular pressure (printed TOP) ([2]; May through July 2016, from 22 mmHg): 16 mmHg; best corrected vision pinhole ([2]; beginning of August): 20/25; blink interval ([2]; beginning of August): approximately 24 second; corneal staining ([2]; beginning of August): staining improved to superficial; intraocular pressure (printed TOP) in both eyes ([2]; beginning of August): 18; rejection cells ([2]; beginning of August): no sign of rejection cells; Keratograph 5M non-invasive tear film break times (NIKBUTs) level ([2]; beginning of August, 0 = best): 0; facial droop and drool ([3]; 3 months of dronabinol application to the ear conchae): droop ad drool significantly resolved; recurrence of facial palsy ([3]; after dronabinol was discontinued in August 2016): no recurrence of facial palsy; best corrected vision with pinhole [3, 6]: 20/25; conjunctival redness [3, 6]: improved significantly; control over facial expression muscles [3, 6]: regained control over facial expression muscles; early graft rejection [3, 6]: reversed; eye lid motor control [3, 6]: more motor control over both eye lids; persistent central corneal staining [3, 6]: resolved to a significant degree; tear film breakup time level by Keratograph 5M ([3]; dronabinol 2.5 mg in oil twice daily divided between both conchae and forehead, 3 months, 0 = best): 0; comfortable contact lens wear duration ([4]; 0.5-0.75 mg dronabinol once daily divided between both conchae and forehead): ≥ 15 h; hand tremor ([4]; 0.5-0.75 mg dronabinol once daily divided between both conchae and forehead, by the fourth day): hand tremor had noticeably reduced; hand tremor ([4]; 0.5-0.75 mg dronabinol once daily to forehead only, 2 weeks): without impacting their symptoms of hand tremor; reduction of essential tremor from pre-treatment levels, stable new baseline ([4]; after discontinuing dronabinol): about 50%; ocular discomfort ([4]; dronabinol USP 0.5 mg to 0.75 mg in an oil formulation to the forehead, substituted for progesterone): the same benefits to ocular discomfort was obtained; tremor amplitude after ceasing treatment ([4]; dronabinol ceased for 3 days, right hand): about 50 % of pre-treatment level; reduction in essential tremor from pre-treatment baseline ([4]; during dronabinol treatment): 80%; appetite ([4]; low dose topical dronabinol): unwanted increase in appetite
